test system: HCT116; assay: In Vitro cytotoxicity measured by the cell colony formation assay; type: cell-based, human; conditions: Homo sapiens, HCT-116; read-out: IN VITRO ID 50 HCT116
Experimental: Four hundred cells (HCT116) were plated in 60 mm Petri dishes containing 2.7 mL of medium (modified McCoy's 5a medium containing 10% fetal bovine serum and 100 units/mL penicillin and […] streptomycin). The cells were incubated in a CO2 incubator at 37 °C for 5 h for attachment to the bottom of Petri dishes. The compounds identified in Example 2 were made up fresh in medium at ten times the final concentration, and then 0.3 mL of this stock solution was added to the 2.7 mL of medium in the dish. The cells were then incubated with drugs for 72 h at 37 °C. At the end of incubation the drug-containing media were decanted, the dishes were rinsed with 4 mL of Hank's Balance Salt Solution (HBSS), 5 mL of fresh medium was added, and the dishes were returned to the incubator for colony formation. The cell colonies were counted using a colony counter after incubation for 7 days.

SMILES	IC50
CC(=O)O[C@@]12CO[C@@H]1C[C@H](O)[C@@]1(C)C(=O)[C@H](OC(=O)c3cccs3)C3=C(C)[C@@H](OC(=O)[C@H](O)[C@@H](NC(=O)OC(C)(C)C)c4ccco4)C[C@@](O)([C@@H](OC(=O)c4ccccc4)[C@H]21)C3(C)C [Compound 1892]	< 1 nM
CC(=O)O[C@@]12CO[C@@H]1C[C@H](O)[C@@]1(C)C(=O)[C@H](OC(=O)c3cccs3)C3=C(C)[C@@H](OC(=O)[C@H](O)[C@@H](NC(=O)OC(C)(C)C)c4cccs4)C[C@@](O)([C@@H](OC(=O)c4ccccc4)[C@H]21)C3(C)C [Compound 1900]	< 1 nM
CC(=O)O[C@@]12CO[C@@H]1C[C@H](O)[C@@]1(C)C(=O)[C@H](OC(=O)c3cccs3)C3=C(C)[C@@H](OC(=O)[C@H](O)[C@@H](NC(=O)OC(C)(C)C)c4ccc([N+](=O)[O-])cc4)C[C@@](O)([C@@H](OC(=O)c4ccccc4)[C@H]21)C3(C)C [Compound 1911]	< 10 nM
CC(=O)O[C@@]12CO[C@@H]1C[C@H](O)[C@@]1(C)C(=O)[C@H](OC(=O)c3cccs3)C3=C(C)[C@@H](OC(=O)[C@H](O)[C@@H](NC(=O)OC(C)(C)C)c4ccoc4)C[C@@](O)([C@@H](OC(=O)c4ccccc4)[C@H]21)C3(C)C [Compound 1923]	< 1 nM
CC(=O)O[C@@]12CO[C@@H]1C[C@H](O)[C@@]1(C)C(=O)[C@H](OC(=O)c3cccs3)C3=C(C)[C@@H](OC(=O)[C@H](O)[C@@H](NC(=O)OC(C)(C)C)c4ccsc4)C[C@@](O)([C@@H](OC(=O)c4ccccc4)[C@H]21)C3(C)C [Compound 1939]	< 1 nM
CC(=O)O[C@@]12CO[C@@H]1C[C@H](O)[C@@]1(C)C(=O)[C@H](OC(=O)c3cccs3)C3=C(C)[C@@H](OC(=O)[C@H](O)[C@@H](NC(=O)OC(C)(C)C)c4cccnc4)C[C@@](O)([C@@H](OC(=O)c4ccccc4)[C@H]21)C3(C)C [Compound 1948]	< 10 nM
CC(=O)O[C@@]12CO[C@@H]1C[C@H](O)[C@@]1(C)C(=O)[C@H](OC(=O)c3cccs3)C3=C(C)[C@@H](OC(=O)[C@H](O)[C@@H](NC(=O)OC(C)(C)C)c4ccncc4)C[C@@](O)([C@@H](OC(=O)c4ccccc4)[C@H]21)C3(C)C [Compound 1954]	< 1 nM
CC(=O)O[C@@]12CO[C@@H]1C[C@H](O)[C@@]1(C)C(=O)[C@H](OC(=O)c3cccs3)C3=C(C)[C@@H](OC(=O)[C@H](O)[C@@H](NC(=O)OC(C)(C)C)C(C)C)C[C@@](O)([C@@H](OC(=O)c4ccccc4)[C@H]21)C3(C)C [Compound 1964]	< 10 nM
CC(=O)O[C@@]12CO[C@@H]1C[C@H](O)[C@@]1(C)C(=O)[C@H](OC(=O)c3cccs3)C3=C(C)[C@@H](OC(=O)[C@H](O)[C@@H](NC(=O)OC(C)(C)C)C4CCC4)C[C@@](O)([C@@H](OC(=O)c4ccccc4)[C@H]21)C3(C)C [Compound 1970]	< 10 nM
CC(=O)O[C@@]12CO[C@@H]1C[C@H](O)[C@@]1(C)C(=O)[C@H](OC(=O)c3cccs3)C3=C(C)[C@@H](OC(=O)[C@H](O)[C@@H](NC(=O)OC(C)(C)C)c4ccccc4)C[C@@](O)([C@@H](OC(=O)c4ccccc4)[C@H]21)C3(C)C [Compound 1988]	< 10 nM
CC(=O)O[C@@]12CO[C@@H]1C[C@H](O)[C@@]1(C)C(=O)[C@H](OC(=O)c3ccco3)C3=C(C)[C@@H](OC(=O)[C@H](O)[C@H](C=C(C)C)NC(=O)OC(C)(C)C)C[C@@](O)([C@@H](OC(=O)c4ccccc4)[C@H]21)C3(C)C [Compound 2101]	< 1 nM
CC(=O)O[C@@]12CO[C@@H]1C[C@H](O)[C@@]1(C)C(=O)[C@H](OC(=O)c3ccco3)C3=C(C)[C@@H](OC(=O)[C@H](O)[C@@H](NC(=O)OC(C)(C)C)c4ccccn4)C[C@@](O)([C@@H](OC(=O)c4ccccc4)[C@H]21)C3(C)C [Compound 2111]	< 1 nM
CC(=O)O[C@@]12CO[C@@H]1C[C@H](O)[C@@]1(C)C(=O)[C@H](OC(=O)c3ccco3)C3=C(C)[C@@H](OC(=O)[C@H](O)[C@@H](NC(=O)OC(C)(C)C)c4cccnc4)C[C@@](O)([C@@H](OC(=O)c4ccccc4)[C@H]21)C3(C)C [Compound 2124]	< 10 nM
CC(=O)O[C@@]12CO[C@@H]1C[C@H](O)[C@@]1(C)C(=O)[C@H](OC(=O)c3ccco3)C3=C(C)[C@@H](OC(=O)[C@H](O)[C@@H](NC(=O)OC(C)(C)C)c4ccncc4)C[C@@](O)([C@@H](OC(=O)c4ccccc4)[C@H]21)C3(C)C [Compound 2132]	< 1 nM
CC(=O)O[C@@]12CO[C@@H]1C[C@H](O)[C@@]1(C)C(=O)[C@H](OC(=O)c3ccco3)C3=C(C)[C@@H](OC(=O)[C@H](O)[C@@H](NC(=O)OC(C)(C)C)c4ccco4)C[C@@](O)([C@@H](OC(=O)c4ccccc4)[C@H]21)C3(C)C [Compound 2142]	< 1 nM
CC(=O)O[C@@]12CO[C@@H]1C[C@H](O)[C@@]1(C)C(=O)[C@H](OC(=O)c3ccco3)C3=C(C)[C@@H](OC(=O)[C@H](O)[C@@H](NC(=O)OC(C)(C)C)c4ccoc4)C[C@@](O)([C@@H](OC(=O)c4ccccc4)[C@H]21)C3(C)C [Compound 2159]	< 1 nM
CC(=O)O[C@@]12CO[C@@H]1C[C@H](O)[C@@]1(C)C(=O)[C@H](OC(=O)c3ccco3)C3=C(C)[C@@H](OC(=O)[C@H](O)[C@@H](NC(=O)OC(C)(C)C)c4cccs4)C[C@@](O)([C@@H](OC(=O)c4ccccc4)[C@H]21)C3(C)C [Compound 2164]	< 1 nM
CC(=O)O[C@@]12CO[C@@H]1C[C@H](O)[C@@]1(C)C(=O)[C@H](OC(=O)c3ccco3)C3=C(C)[C@@H](OC(=O)[C@H](O)[C@@H](NC(=O)OC(C)(C)C)c4ccsc4)C[C@@](O)([C@@H](OC(=O)c4ccccc4)[C@H]21)C3(C)C [Compound 2173]	< 1 nM
CC(=O)O[C@@]12CO[C@@H]1C[C@H](O)[C@@]1(C)C(=O)[C@H](OC(=O)c3ccco3)C3=C(C)[C@@H](OC(=O)[C@H](O)[C@@H](NC(=O)OC(C)(C)C)C(C)C)C[C@@](O)([C@@H](OC(=O)c4ccccc4)[C@H]21)C3(C)C [Compound 2181]	< 10 nM
CC(=O)O[C@@]12CO[C@@H]1C[C@H](O)[C@@]1(C)C(=O)[C@H](OC(=O)c3ccco3)C3=C(C)[C@@H](OC(=O)[C@H](O)[C@@H](NC(=O)OC(C)(C)C)C4CCC4)C[C@@](O)([C@@H](OC(=O)c4ccccc4)[C@H]21)C3(C)C [Compound 2199]	< 10 nM
CC(=O)O[C@@]12CO[C@@H]1C[C@H](O)[C@@]1(C)C(=O)[C@H](OC(=O)c3ccco3)C3=C(C)[C@@H](OC(=O)[C@H](O)[C@@H](NC(=O)OC(C)(C)C)c4ccc([N+](=O)[O-])cc4)C[C@@](O)([C@@H](OC(=O)c4ccccc4)[C@H]21)C3(C)C [Compound 2202]	< 1 nM
CC(=O)OC12COC1CC(O)C1(C)C(=O)C(OC(=O)c3ccco3)C3=C(C)C(OC(=O)C(O)C(NC(=O)OC(C)(C)C)c4ccccc4)CC(O)(C(OC(=O)c4ccccc4)C21)C3(C)C (stereo not shown) [Compound 2212]	< 10 nM
CC(=O)OC12COC1CC(O)C1(C)C(=O)C(OC(=O)C(C)C)C3=C(C)C(OC(=O)C(O)C(C=C(C)C)NC(=O)OC(C)(C)C)CC(O)(C(OC(=O)c4ccccc4)C21)C3(C)C (stereo not shown) [Compound 2226]	< 1 nM
CC(=O)OC12COC1CC(O)C1(C)C(=O)C(OC(=O)C(C)C)C3=C(C)C(OC(=O)C(O)C(NC(=O)OC(C)(C)C)c4ccccn4)CC(O)(C(OC(=O)c4ccccc4)C21)C3(C)C (stereo not shown) [Compound 2238]	< 1 nM
CC(=O)OC12COC1CC(O)C1(C)C(=O)C(OC(=O)C(C)C)C3=C(C)C(OC(=O)C(O)C(NC(=O)OC(C)(C)C)c4cccnc4)CC(O)(C(OC(=O)c4ccccc4)C21)C3(C)C (stereo not shown) [Compound 2242]	< 10 nM
